According to patent publication US20230416270A1, “NOVEL CAMPTOTHECIN DERIVATIVE, COMPOSITION COMPRISING SAME AND USE THEREOF” (priority 2020, published 2023):
Read-outs that look alike come from different tables or passages of the source. Numbered stars: 1 amine (or outer) side, 2 acyl side, 3 side chain; on linkers, the order of the positions; unused ones are H or OH. Square brackets hold non-standard residues; d marks the D form. Peptide text beside a SMILES is read from it. * marks the point of attachment. Exatecan = CC[C@@]1(O)C(=O)OCc2c1cc1n(c2=O)Cc2c-1nc1cc(F)c(C)c3c1c2[C@@H](N*)CC3; Hexanoyl(6-maleimido) = O=C1C=CC(=O)N1CCCCCC(=O)*; NHCH2OCH2CO = O=C(COCN[*:1])[*:2]

Legend:
SK-BR-3 cells = assay: Assay for antiproliferative activity against SK-BR-3 cells (CellTiter-Lumi, ATP content); assay type: cell-based; conditions: for IC50: read-out: IC50 (nM), antiproliferative activity against SK-BR-3 cells
Protocol: The activity of the antibody-drug conjugate of the present invention can be determined by the assay for the in-vitro antiproliferative activity against SK-BR-3 cells of a camptothecin derivative as a small molecule toxin.
SK-BR-3 cells were seeded into a 384-well plate (Fisher 142762) at 3000 cells per well. The next day, serially diluted compounds were added, and 72 hours after the addition, CellTiter-Lumi (Beyotime C0068XL) was added to measure the ATP content in the cells. The growth of the cells was evaluated, and relative IC50 values of the compounds against cell growth was calculated.

[1] = system: SK-BR-3 cells with high expression of HER2; assay: cells; assay type: cell-based; conditions: Homo sapiens, SK-BR-3, 144 h, read-out: IC50 (nM), antiproliferative activity of the antibody-drug conjugates against SK-BR-3 cells
Text: SK-BR-3 cells with high expression of HER2 were selected as cell strains for in-vitro activity detection in the experiment and were used for evaluating the dose-effect relationship of the antibody-drug conjugates (ADCs) of the present invention on cell killing.

[2] = Homo sapiens, SK-BR-3, 72 hours after compound addition, relative IC50

`CC[C@@]1(O)C(=O)OCc2c1cc1n(c2=O)Cc2c-1nc1cc(F)c(C)c3c1c2C(N)CS3` (stereo partly drawn) [Compound 1, (9S)-1-amino-9-ethyl-5-fluoro-9-hydroxy-4-methyl-1,9,12,15-tetrahydro-13H-pyrano[3′, 4′:6,7]indolizino[1,2-b]thiopyrano[4,3,2-de]quinoline-10,13(2H)-dione] gave an IC50 (SK-BR-3 cells; Homo sapiens, SK-BR-3, 72 h) of 2.98 nM.

`CC[C@@]1(O)C(=O)OCc2c1cc1n(c2=O)Cc2c-1nc1cc(F)c(C)c3c1c2[C@H](N)CS3` [Compound 1-1] showed an IC50 (SK-BR-3 cells; Homo sapiens, SK-BR-3, 72 h) of 5.81 nM.

In the case of `CC[C@@]1(O)C(=O)OCc2c1cc1n(c2=O)Cc2c-1nc1cc(F)c(C)c3c1c2[C@@H](N)CS3` [Compound 1-2], the IC50 (SK-BR-3 cells; Homo sapiens, SK-BR-3, 72 h) is reported as 1.73 nM and the “fold more active than exatecan” value (SK-BR-3 cells; SK-BR-3 antiproliferative activity, relative to exatecan) is reported as 2 fold.

Compound `CCc1c(F)cc2nc3c(c4c2c1SC[C@@H]4N)Cn1c-3cc2c(c1=O)COC(=O)[C@]2(O)CC` [Compound 3-2] has an IC50 (SK-BR-3 cells; [2]) of 2.85 nM.

In the case of `CC[C@@]1(O)C(=O)OCc2c1cc1n(c2=O)Cc2c-1nc1cc(F)c(OC)c3c1c2[C@@H](N)CS3` [Compound 4-2], the IC50 (SK-BR-3 cells; Homo sapiens, SK-BR-3, 72 h) is reported as 2.74 nM.

`CC[C@@]1(O)C(=O)OCc2c1cc1n(c2=O)Cc2c-1nc1cc(F)c(C)c3c1c2[C@@H](N)CO3` [Compound 7-2] gave an IC50 (SK-BR-3 cells; Homo sapiens, SK-BR-3, 72 h) of 2.68 nM.

Compound `CC[C@@]1(O)C(=O)OCc2c1cc1n(c2=O)Cc2c-1nc1cc(F)c(C)c3c1c2[C@@H](NC)CS3` [Compound 14-2] has an IC50 (SK-BR-3 cells; Homo sapiens, SK-BR-3, 72 h) of 4.13 nM.

`CC[C@@]1(O)C(=O)OCc2c1cc1n(c2=O)Cc2c-1nc1cc(F)c(C)c3c1c2C(O)CS3` (some centres unmarked) [Compound 20] gave an IC50 (SK-BR-3 cells; Homo sapiens, SK-BR-3, 72 h) of 5.83 nM.

In the case of `CCc1c(F)cc2nc3c(c4c2c1SC[C@@H]4NC(=O)CO)Cn1c-3cc2c(c1=O)COC(=O)[C@]2(O)CC` [Compound 34], the IC50 (SK-BR-3 cells; Homo sapiens, SK-BR-3, 72 h) is reported as 5.84 nM.

In the case of `CC[C@@]1(O)C(=O)OCc2c1cc1n(c2=O)Cc2c-1nc1cc(F)c(OC)c3c1c2[C@@H](NC(=O)CO)CS3` [Compound 35], the IC50 (SK-BR-3 cells; Homo sapiens, SK-BR-3, 72 h) is reported as 6.53 nM.

`Cc1c(F)cc2nc3c(c4c2c1SC[C@@H]4NC(=O)CO)Cn1c-3cc2c(c1=O)COC(=O)[C@]2(O)CCF` [Compound 39] showed an IC50 (SK-BR-3 cells; Homo sapiens, SK-BR-3, 72 h) of 4.78 nM.

`CC[C@@]1(O)C(=O)OCc2c1cc1n(c2=O)Cc2c-1nc1cc(F)c(C)c3c1c2[C@@H](NC(=O)CO)CO3` [Compound 41] showed an IC50 (SK-BR-3 cells; Homo sapiens, SK-BR-3, 72 h) of 6.47 nM.

Work on `CC[C@@]1(O)C(=O)OCc2c1cc1n(c2=O)Cc2c-1nc1cc(F)c(C)c3c1c2[C@@H](NC(=O)[C@H](C)O)CS3` [Compound 44] yielded an IC50 (SK-BR-3 cells; Homo sapiens, SK-BR-3, 72 h) of 6.29 nM.

`CC[C@@]1(O)C(=O)OCc2c1cc1n(c2=O)Cc2c-1nc1cc(F)c(C)c3c1c2[C@@H](NC(=O)[C@@H](O)C1CC1)CS3` [Compound 48] was tested, and the IC50 (SK-BR-3 cells; Homo sapiens, SK-BR-3, 72 h) was 6.73 nM.

`CC[C@@]1(O)C(=O)OCc2c1cc1n(c2=O)Cc2c-1nc1cc(F)c(C)c3c1c2[C@@H](NC(=O)[C@H](O)C1CC1)CS3` [Compound 49] showed an IC50 (SK-BR-3 cells; Homo sapiens, SK-BR-3, 72 h) of 7.32 nM.

Work on `CC[C@@]1(O)C(=O)OCc2c1cc1n(c2=O)Cc2c-1nc1cc(F)c(C)c3c1c2[C@@H](NC(=O)COCNC(=O)CNC(=O)[C@H](Cc1ccccc1)NC(=O)CNC(=O)CNC(=O)CCCCCN1C(=O)C=CC1=O)CC3` [Deruxtecan, reference compound] ({Hexanoyl(6-maleimido)}-GGFG[NHCH2OCH2CO]-Exatecan) yielded an IC50 (SK-BR-3 cells; SK-BR-3, 72 hours after compound addition, relative IC50) of 13.6 nM.

In the case of `CC[C@@]1(O)C(=O)OCc2c1cc1n(c2=O)Cc2c-1nc1cc(F)c(C)c3c1c2[C@@H](N)CC3` [Exatecan, reference compound], the IC50 [1] is reported as 0.73 nM and the IC50 (SK-BR-3 cells; Homo sapiens, SK-BR-3, 72 h) is reported as 5.35 nM.

`CC[C@@]1(O)C(=O)OCc2c1cc1n(c2=O)Cc2cc3c(CN(C)C)c(O)ccc3nc2-1` [Topotecan, reference compound] was tested, and the IC50 (SK-BR-3 cells; [2]) was 58.3 nM.
